Values quoted from earlier work, collected in patent US20220280598A1, “COMPLEMENT INHIBITOR DOSING REGIMENS” (Apellis Pharmaceuticals, Inc., priority 2019, published 2022).

Legend:
[1] = system: complement activation (alternative pathway); settings: alternative pathway-mediated erythrocyte lysis assay (WO2004/026328); cited from earlier work
complement activation = settings: relative to compstatin amidated at the C-terminus; published data; cited from earlier work

| Compound | IC50 [1] | Activity over compstatin (complement activation) |
| --- | --- | --- |
| CC[C@H](C)[C@H](N)C(=O)N[C@H]1CSSC[C@@H](C(=O)N[C@H](C(N)=O)[C@@H](C)O)NC(=O)[C@H](CCCN=C(N)N)NC(=O)[C@H](Cc2cnc[nH]2)NC(=O)[C@H](Cc2cnc[nH]2)NC(=O)CNC(=O)[C@H](Cc2c[nH]c3ccccc23)NC(=O)[C@H](CC(=O)O)NC(=O)[C@H](CCC(N)=O)NC(=O)[C@H](C(C)C)NC(=O)[C@H](C(C)C)NC1=O [Compstatin, H-ICVVQDWGHHRCT-CONH2] | 12 µM |  |
| Ac-ICVVQDWGHHRCT-CONH2 [Ac-compstatin] |  | 3 × more |
